Assay results from patent US20090215717A1, “Sulfated oligosaccharides” (Ivax Drug Research Institute Ltd., priority 2004, published 2009).
Where a name gives a salt, the structure may show the parent alone. Read-outs that look alike come from different tables or passages of the source.

Experiments:
IP-3 receptor = molecular target: T1, IP-3 receptor (Rattus norvegicus, UniProt P29994); test: IP-3 receptor antagonistic effect, rat cerebellum membrane preparations (Model 5); assay type: binding; details: for IC50 / IC50 Average ± SEM (n): inhibition of IP-3 binding
T1 construct: rat cerebellum membrane preparations; from tissue; host or cells: rat cerebellum (microsomal membrane preparation)
T1 sequence (P29994 whole entry): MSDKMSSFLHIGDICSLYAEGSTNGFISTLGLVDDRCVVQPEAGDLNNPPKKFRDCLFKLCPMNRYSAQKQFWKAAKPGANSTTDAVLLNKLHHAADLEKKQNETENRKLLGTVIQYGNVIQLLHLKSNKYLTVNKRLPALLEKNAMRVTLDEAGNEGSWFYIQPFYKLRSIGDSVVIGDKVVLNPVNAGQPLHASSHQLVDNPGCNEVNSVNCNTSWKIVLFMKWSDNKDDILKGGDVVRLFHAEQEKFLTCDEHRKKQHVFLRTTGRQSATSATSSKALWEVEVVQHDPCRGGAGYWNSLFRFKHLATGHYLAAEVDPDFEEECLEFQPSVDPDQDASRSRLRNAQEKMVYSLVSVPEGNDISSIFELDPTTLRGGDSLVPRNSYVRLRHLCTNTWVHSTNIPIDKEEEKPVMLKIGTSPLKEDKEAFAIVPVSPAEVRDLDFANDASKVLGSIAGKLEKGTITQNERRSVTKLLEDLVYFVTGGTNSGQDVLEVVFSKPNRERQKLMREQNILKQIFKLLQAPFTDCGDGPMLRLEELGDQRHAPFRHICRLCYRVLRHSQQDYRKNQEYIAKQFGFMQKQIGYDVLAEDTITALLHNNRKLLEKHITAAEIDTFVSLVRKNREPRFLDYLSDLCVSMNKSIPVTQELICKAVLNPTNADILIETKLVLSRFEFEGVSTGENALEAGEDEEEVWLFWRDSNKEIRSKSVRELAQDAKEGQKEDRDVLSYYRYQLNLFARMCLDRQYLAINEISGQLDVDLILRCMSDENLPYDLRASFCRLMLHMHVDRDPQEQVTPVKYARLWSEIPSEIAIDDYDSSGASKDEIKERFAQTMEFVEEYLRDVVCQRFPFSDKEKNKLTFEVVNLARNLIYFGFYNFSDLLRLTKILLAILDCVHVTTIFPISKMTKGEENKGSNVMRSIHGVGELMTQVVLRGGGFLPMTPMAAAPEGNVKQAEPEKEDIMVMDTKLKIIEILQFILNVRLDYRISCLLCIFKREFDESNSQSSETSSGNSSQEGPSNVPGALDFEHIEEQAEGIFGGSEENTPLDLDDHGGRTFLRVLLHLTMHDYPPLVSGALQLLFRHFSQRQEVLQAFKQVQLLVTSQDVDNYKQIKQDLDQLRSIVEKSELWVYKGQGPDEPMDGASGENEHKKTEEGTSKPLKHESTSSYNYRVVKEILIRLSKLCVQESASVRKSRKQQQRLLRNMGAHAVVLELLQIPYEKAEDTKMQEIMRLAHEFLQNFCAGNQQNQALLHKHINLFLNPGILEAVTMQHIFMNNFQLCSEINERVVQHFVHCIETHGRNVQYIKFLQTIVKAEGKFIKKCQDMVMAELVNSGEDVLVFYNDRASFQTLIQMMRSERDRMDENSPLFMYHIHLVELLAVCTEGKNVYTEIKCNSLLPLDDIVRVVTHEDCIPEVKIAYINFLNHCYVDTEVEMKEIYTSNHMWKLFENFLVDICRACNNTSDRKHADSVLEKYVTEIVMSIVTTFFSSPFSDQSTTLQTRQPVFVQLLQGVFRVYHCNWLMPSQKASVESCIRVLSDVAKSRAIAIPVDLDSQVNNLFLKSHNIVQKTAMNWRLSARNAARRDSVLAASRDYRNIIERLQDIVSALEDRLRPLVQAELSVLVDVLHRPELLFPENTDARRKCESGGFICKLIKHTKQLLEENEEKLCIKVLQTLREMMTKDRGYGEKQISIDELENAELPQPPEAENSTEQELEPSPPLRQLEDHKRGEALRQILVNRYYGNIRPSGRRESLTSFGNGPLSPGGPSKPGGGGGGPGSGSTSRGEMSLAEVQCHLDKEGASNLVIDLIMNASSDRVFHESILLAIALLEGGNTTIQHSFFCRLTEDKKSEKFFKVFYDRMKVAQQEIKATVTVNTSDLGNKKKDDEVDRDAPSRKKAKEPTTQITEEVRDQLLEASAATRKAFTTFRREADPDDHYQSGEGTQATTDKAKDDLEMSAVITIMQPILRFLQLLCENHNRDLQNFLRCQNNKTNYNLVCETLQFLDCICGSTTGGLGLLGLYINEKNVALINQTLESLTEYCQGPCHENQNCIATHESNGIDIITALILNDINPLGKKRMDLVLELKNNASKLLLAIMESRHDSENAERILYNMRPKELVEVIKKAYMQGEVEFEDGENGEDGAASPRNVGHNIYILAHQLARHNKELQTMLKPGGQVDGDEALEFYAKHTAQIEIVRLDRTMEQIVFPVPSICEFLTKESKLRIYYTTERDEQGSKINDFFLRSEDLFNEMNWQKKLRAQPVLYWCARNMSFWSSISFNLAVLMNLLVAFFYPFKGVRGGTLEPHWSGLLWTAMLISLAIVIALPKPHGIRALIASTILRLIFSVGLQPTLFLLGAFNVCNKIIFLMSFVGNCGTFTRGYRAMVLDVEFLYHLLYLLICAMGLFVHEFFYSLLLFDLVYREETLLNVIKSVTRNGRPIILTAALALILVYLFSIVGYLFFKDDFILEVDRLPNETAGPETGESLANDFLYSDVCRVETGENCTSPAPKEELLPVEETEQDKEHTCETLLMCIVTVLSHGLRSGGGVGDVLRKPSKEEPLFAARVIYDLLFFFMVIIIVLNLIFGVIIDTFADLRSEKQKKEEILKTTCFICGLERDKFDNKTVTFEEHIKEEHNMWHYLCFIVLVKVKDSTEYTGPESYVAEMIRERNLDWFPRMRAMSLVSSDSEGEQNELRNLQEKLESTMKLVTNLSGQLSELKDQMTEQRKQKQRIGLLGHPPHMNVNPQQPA
Method: The sulfated oligosaccharides of the present invention, depending on their chemical structure, inhibit the binding of inositol-1,4,5-trisphophate […] to its receptor in microsomal membrane preparations. As IP-3 is a messenger molecule playing distinguished role in the activation of different cells, interfering with this function can explain the anti-asthmatic effect of these sulfated oligosaccharides.
The IP-3 antagonist effect of the sulfated oligosaccharides was determined using rat cerebellum membrane preparations according to Worley et al. (JBC 262, 12132, 1987).

Brown Norway (BN) rats = test: Tracheal contraction to acetylcholine ex vivo after antigen challenge of ovalbumin-sensitized BN rats (Model 1); assay type: in vivo, rat; details: for MAX: contraction at maximal Ach concentration relative to control (mean ± SEM): placebo 220 ± 30, control 100 ± 0; for ED50: log M acetylcholine (Ach), causing 50% contraction relative to control (mean ± SEM): trachea 48 h post challenge, placebo 6.10 ± 0.30, control 5.16 ± 0.08
Method: Examination of the effect of locally administered sulfated oligosaccharides on airways' hyper-responsiveness ex vivo.
Brown Norway (BN) rats were actively sensitized to ovalbumin (OA) by a subcutaneous injection of 0.5 ml of OA/Al(OH)3 gel mixture (2 mg OA+10 g Al(OH)3/100 ml saline) on day 1 with subsequent subcutaneous injections (10 mg OA+10 g Al(OH)3/100 ml saline) given on days 14 and 21. On day 28, animals received the compound of formula (IIA) intratracheally (0.01 or 1.0 mg/kg dose) 2 hours before antigen challenge. Antigen challenge was performed by inhalation of nebulised ovalbumin (1% antigen solution administered in a TSE inhalation system for 1 hour). Animals were sacrificed 48 hours post antigen challenge wherein the tracheas were removed to an organ bath. Dissected tracheas were allowed to equilibrate for 30 minutes before measuring tracheal spasmogenic response curves to acetylcholine (Ach).
As shown in Table 1 ovalbumin challenge of sensitized animals in this model caused a significant tracheal hyper-reactivity to acetylcholine, when the response to the spasmogenic agent was determined 48 h after antigen challenge.

BN rats [1] = test: Allergen stimulated mucus production of airways epithelial cells, PAS(+) cell count (Model 2); assay type: in vivo, rat; details: for number of PAS(+) cells as percent of total number of cells (average ± SEM): lungs 48 h after challenge, challenge 27.6 ± 3.5, control 2.9 ± 0.9
Method: Sensitized BN rats were treated intratracheally with 0.01 or 1.0 mg/kg dose of compound of formula (IIA), two hours before antigenic challenge, using a similar protocol described in Model 1. Lungs were collected 48 hours after challenge and were fixed in 8% phophospate buffered formaldehyde. Samples were then processed for histochemistry routinely. 5 μm thick sections were stained with periodic-acid-Schiff (PAS) reagents and were counterstained with haematoxylin-eosine. On the sections each epithelial cells of the airways were counted in the whole preparation at a magnification of 400×. The number of PAS(+) [mucus producing] epithelial cells was expressed as the ratio of the […] of epithelial cells.
As it is shown in Table 2, allergen challenge stimulates the mucus production of airways epithelial cells (control vs. challenge).

BN rats [2] = test: Perivascular oedema in asthmatic lung tissue (Model 3); assay type: in vivo, rat; details: for Oedema: area of oedema relative to area of vasculature (average ± SEM): lungs 48 h after challenge, challenge 224 ± 17, control 71 ± 7
Method: Sensitized BN rats were treated intratracheally with 0.01 and 1.0 mg/kg dose of compound of formula (IIA), two hours before antigenic challenge, using a similar protocol described in Model 1. Lungs were collected 48 hours after challenge and were fixed in 8% phosphate buffered formaldehyde. Samples were then processed for histochemistry routinely. […] thick sections were stained with periodic-acid-Schiff (PAS) reagents and were counterstained with haematoxylin-eosine. On the sections the areas of the connective tissue around the vasculare were determined and expressed as a ratio of the area of the corresponding blood vessel itself.

BN rats [3] = test: Eosinophilia in bronchoalveolar lavage fluid (Model 4); assay type: in vivo, rat; details: for Eosinophil: eosinophil number/ml BALF (average ± SEM): BALF 48 h after challenge, challenge 1.00 ± 0.16, control 0.35 ± 0.04
Method: Sensitized BN rats were treated intratracheally with 0.01 and 1.0 mg/kg dose of compound of formula (IIA); two hours before antigenic challenge, using a similar protocol described in Model 1. Bronchoalveolar lavage fluids (BALF) were collected 48 hours after challenge and after staining, the number of eosinophils were determined.
As it is shown in Table 4, allergen challenge causes an increase in the number of eosinophils in the bronchioalveolar lavage.

[4] = 0.01 mg/kg intratracheally 2 h before antigen challenge
[5] = 1.0 mg/kg intratracheally 2 h before antigen challenge
[6] = 0.01 mg/kg intratracheally 2 h before challenge
[7] = 1.0 mg/kg intratracheally 2 h before challenge
[8] = higher dose (1.0 mg/kg intratracheally)

Row | SMILES | IC50 (IP-3 receptor; read-out: Average IC50) | IC50 (IP-3 receptor; read-out: IC50 Average ± SEM (n) (converted)) | MAX: contraction at maximal Ach concentration relative to control (mean ± SEM) (Brown Norway (BN) rats; [4]) | ED50: log M acetylcholine (Ach), causing 50% contraction relative to control (mean ± SEM) (Brown Norway (BN) rats; [4]) | MAX: contraction at maximal Ach concentration relative to control (mean ± SEM) (Brown Norway (BN) rats; [5]) | ED50: log M acetylcholine (Ach), causing 50% contraction relative to control (mean ± SEM) (Brown Norway (BN) rats; [5]) | effect on tracheal hyper-reactivity to acetylcholine (in words) (Brown Norway (BN) rats; both applied doses (0.01 and 1.0 mg/kg intratracheally)) | effect on number of PAS(+), mucus producing cells (in words) (BN rats [1]; 0.01 mg/kg intratracheally) | number of PAS(+) cells as percent of total number of cells (average ± SEM) (BN rats [1]; [6]) | number of PAS(+) cells as percent of total number of cells (average ± SEM) (BN rats [1]; [7]) | effect on number of PAS(+), mucus producing cells (in words) (BN rats [1]; [8]) | Oedema: area of oedema relative to area of vasculature (average ± SEM) (BN rats [2]; [6]) | Oedema: area of oedema relative to area of vasculature (average ± SEM) (BN rats [2]; [7]) | effect on extent of oedema around the vasculature (in words) (BN rats [2]; [8]) | Eosinophil: eosinophil number/ml BALF (average ± SEM) (BN rats [3]; [6]) | Eosinophil: eosinophil number/ml BALF (average ± SEM) (BN rats [3]; [7]) | effect on number of eosinophils in the bronchioalveolar lavage (in words) (BN rats [3]; higher doses (1.0 mg/kg intratracheally)) | effect on number of eosinophils in the bronchioalveolar lavage (in words) (BN rats [3]; smallest dose (0.01 mg/kg intratracheally)) | IP-3 antagonist activity (in words) (IP-3 receptor) | IC50 Average ± SEM (n) (IP-3 receptor)
1 | O=S(=O)(O)OC[C@H]1O[C@H](O[C@H]2O[C@H](COS(=O)(=O)O)[C@@H](OS(=O)(=O)O)[C@H](OS(=O)(=O)O)[C@H]2OS(=O)(=O)O)[C@H](OS(=O)(=O)O)[C@@H](OS(=O)(=O)O)[C@@H]1OS(=O)(=O)O [IIB, trehalose octasulfate octa potassium salt] | 194 nM | 244 nM |  |  |  |  |  |  |  |  |  |  |  |  |  |  |  |  |  | 
2 | O=S(=O)([O-])OC[C@H]1O[C@@](COS(=O)(=O)[O-])(O[C@H]2O[C@H](COS(=O)(=O)[O-])[C@@H](OS(=O)(=O)[O-])[C@H](OS(=O)(=O)[O-])[C@H]2OS(=O)(=O)[O-])[C@@H](OS(=O)(=O)[O-])[C@@H]1OS(=O)(=O)[O-].[Na+].[Na+].[Na+].[Na+].[Na+].[Na+].[Na+].[Na+] [IIA, sucrose octasulfate octa sodium salt] | 208 nM |  | 167 ± 36 | 4.73 ± 0.50 log M | 131 ± 22 | 4.98 ± 0.30 log M | notably decreased this elevation | notably | 19.2 ± 2.7% | 7.3 ± 1.4% | statistically significantly decreased | 177 ± 10 | 119 ± 7 | significantly decreased | 0.89 ± 0.13 eosinophil number/ml BALF | 0.70 ± 0.08 eosinophil number/ml BALF | the decrease become statistically significant | decreases the extent of it | significant IP-3 antagonist activity | 0.26 ± 0.05 (4) μg/ml
3 | O=S(=O)([O-])OC[C@H]1O[C@H](OC[C@H]2O[C@H](O[C@]3(COS(=O)(=O)[O-])O[C@H](COS(=O)(=O)[O-])[C@@H](OS(=O)(=O)[O-])[C@@H]3OS(=O)(=O)[O-])[C@H](OS(=O)(=O)[O-])[C@@H](OS(=O)(=O)[O-])[C@@H]2OS(=O)(=O)[O-])[C@H](OS(=O)(=O)[O-])[C@@H](OS(=O)(=O)[O-])[C@H]1OS(=O)(=O)[O-].[K+].[K+].[K+].[K+].[K+].[K+].[K+].[K+].[K+].[K+].[K+] [IIC, raffinose undecasulfate undeca potassium salt] | 238 nM |  |  |  |  |  |  |  |  |  |  |  |  |  |  |  |  |  | significant IP-3 antagonist activity | 0.43 ± 0.05 (3) μg/ml
